Data from patent US11672868B2, “Bicyclic peptide ligands specific for MT1-MMP” (priority 2014, dated 2023).
Like-named read-outs stand apart in the source and are kept apart here. Marks after values point to notes of the source that are not given here. Numbered stars: 1 amine (or outer) side, 2 acyl side, 3 side chain; on linkers, the order of the positions; unused ones are H or OH. Bridge positions count the residues as written; N and C are the ends. Square brackets hold non-standard residues; d marks the D form. Peptide text beside a SMILES is read from it. I, II: the chains in the order shown. * marks the point of attachment. X3 = COc1cc2cc(c1Cl)N(C)C(=O)C[C@H](OC(=O)[C@H](C)N(C)C(=O)CCSSCCCC(=O)*)[C@]1(C)O[C@H]1[C@H](C)[C@@H]1C[C@@](O)(NC(=O)O1)[C@H](OC)/C=C/C=C(\C)C2; Dolaproine = CO[C@@H]([C@@H]1CCCN1)[C@@H](C)C(=O)O; Dil = CC[C@H](C)[C@H](NC)[C@@H](CC(=O)O)OC; Phe(4-Br) = N[C@@H](Cc1ccc(Br)cc1)C(=O)O; 1Nal = N[C@@H](Cc1cccc2ccccc12)C(=O)O; TBMB = c1c(C[*:1])cc(C[*:3])cc1C[*:2]; PABC = O=C(OCc1ccc(N[*:1])cc1)[*:2]; Glutaryl = O=C(CCCC(=O)[*:2])[*:1]; X4 = C[C@@H](N*)[C@@H](O)c1ccccc1; Cit = NC(=O)NCCC[C@H](N)C(=O)O; Tle = CC(C)(C)[C@H](N)C(=O)O; NMeV = CN[C@H](C(=O)O)C(C)C; Sar = CNCC(=O)O

What was measured:
[1] = Plasma stability, quantitative LC-MS (Method #2); assay type: in vitro ADME, mouse; details: ex vivo mouse plasma at 37° C., Method #2 (FIG. 1, FIG. 3A); read-out: half-life of the peptide in mouse plasma (converted)
Procedure: (§1) To obtain plasma stability of bicyclic peptides quantitatively, peptide stock solutions (200 μM in DMSO) were mixed with plasma (human or mouse), such that final concentrations were 10 μM. 40 μL samples were taken periodically up to 8 hrs and frozen at −80° C. Prior to LC-MS analysis, samples were defrosted, and mixed with 3 volumes (here, 120 μL) of 1:1 acetonitrile/MeOH water. The milky suspensions were centrifuged for 30 min at 13000 rpm, and peptide-containing supernatants were quantitated for doubly/triply charged species and MS/MS fragments thereof using a Waters Xevo TQ-D instrument, while using a plasma extracted standard curve of the same peptides as a reference. The half-life of degradation in plasma was used to assess the comparative stability of the molecules.

[2] = Plasma stability, quantitative LC-MS (Method #2); assay type: in vitro ADME, human; details: human, human plasma, 37° C.; sentence prints mouse plasma; read-out: half-life of the peptide in plasma (FIG. 3B, human plasma stability) (converted)
Procedure: as §1, with “[…] […]” for “To obtain plasma stability of bicyclic peptides quantitatively, peptide stock solutions (200 μM in DMSO) were mixed with plasma (human or mouse), such that final concentrations were 10 μM. 40 μL samples were taken periodically up to 8 hrs and frozen at −80° C.”

[3] = tested on: HT-1080 xenograft tumours; assay: Efficacy in HT-1080 xenograft mice; assay type: in vivo, mouse; details: HT1080 xenograft
Procedure: Balb/c nude mice bearing subcutaneous HT-1080 xenograft tumours were treated with BDCs or vehicle (PBS). BDCs were dosed 3 times weekly for 2 weeks, dosing initiated when tumours measured approx. 150-200 mm^3. Mice were monitored, and measurements of tumour volume and body weight recorded 3 times a week.

[4] = tested on: human lung squamous cell carcinoma line EBC-1; assay: Efficacy in EBC-1 xenograft mice; assay type: in vivo, mouse; details: mouse bearing EBC-1 tumours; ± 95% confidence limit
Procedure: In vivo efficacy of BT17BDC-17, BT17BDC-18, BT17BDC-19 and BT17BDC-20 All BDCs containing the stabilised bicycle core sequence were tested for their efficacies in in vivo mouse xenograft models, using the human lung squamous cell carcinoma line EBC-1.
The area under the curve (AUC) of tumour volume over time and BDC was taken and plotted against the corresponding dose group (FIG. 13).

[5] = Mouse pharmacokinetics, single intravenous dose; assay type: in vivo; details: male CD1 mice, single intravenous 5.925 mg/kg, mean
Procedure: Mouse pharmacokinetics were acquired using bicyclic peptide 17-69-04-N004, which was dosed to one group of 12 male CD1 mice as a single intravenous, 5.925 mg/kg doses as a 5 mL/kg bolus of a 1.19 mg/mL solution. […] Blood samples were taken from two animals per time-point, via cardiac puncture under terminal anaesthesia, at 0.08, 0.5, 1, 2 and 4 hours post-dose, and transferred to EDTA tubes for plasma generation. Plasma samples were immediately frozen at −20 C. For analysis, samples were thawed rapidly and 50 μL aliquots were treated with 3 volumes of extraction solvent (2:9:9 mixture of 10 mM ammonium bicarbonate, pH 8, acetonitrile and methanol, containing an analytical internal standard). Precipitated proteins were removed by centrifugation and the supernatant was analysed by LC-MS/MS. Quantification of the samples was by reference to a calibration line prepared in control mouse plasma. Pharmacokinetic parameters were determined by non-compartmental analysis using the software package PK Solutions 2.0 from Summit Research Services.
Cmax: Maximum measured concentration;
Tmax: Time at which maximum concentration was measured;
AUC 0-t: Area under the plasma drug concentration/time curve from 0 minutes to last quantifiable data point; and
AUC 0-∞: Area under the plasma drug concentration/time curve from 0 minutes extrapolated beyond the final data point based on the terminal half-life.

| SMILES | half-life at 10 μM [1] [h] | half-life at 10 μM [2] [h] | weight of the animals during treatment [3] | also measured |
| --- | --- | --- | --- | --- |
| C[C@H](NC(=O)CN(C)C(=O)CN(C)C(=O)CN(C)C(=O)CN(C)C(=O)CN(C)C(=O)CN(C)C(=O)CN(C)C(=O)CN(C)C(=O)CN(C)C(=O)CN(C)C(=O)CN)C(=O)N[C@H]1CSCc2cc3cc(c2)CSC[C@H](NC(=O)[C@@H](C)NC(=O)[C@H](Cc2cccc4ccccc24)NC(=O)[C@H](CCC(=O)O)NC(=O)[C@H](CC(N)=O)NC(=O)[C@@H](C)NC1=O)C(=O)N[C@@H](CCC(=O)O)C(=O)N[C@@H](CC(=O)O)C(=O)N[C@@H](Cc1ccccc1)C(=O)N[C@@H](Cc1ccc(Br)cc1)C(=O)N[C@@H](CC(=O)O)C(=O)N[C@@H](C(C)(C)C)C(=O)N[C@H](C(N)=O)CSC3 [17-69-07-N244, G-Sar10-A-(17-69-07) D-Ala1 1Nal4 D-Ala5 4BrPhe9 tBuGly11] (H-G[Sar][Sar][Sar][Sar][Sar][Sar][Sar][Sar][Sar][Sar]AC[dA]NE[1Nal][dA]CEDF[Phe(4-Br)]D[Tle]C-NH2; linker 13-19-26 via TBMB; C-terminus assumed) | > 20 | > 20 | – | – |
| C[C@H](NC(=O)CN(C)C(=O)CN(C)C(=O)CN(C)C(=O)CN(C)C(=O)CN(C)C(=O)CN(C)C(=O)CN(C)C(=O)CN(C)C(=O)CN(C)C(=O)CN(C)C(=O)CN)C(=O)N[C@H]1CSCc2cc3cc(c2)CSC[C@H](NC(=O)[C@@H](C)NC(=O)[C@H](Cc2cccc4ccccc24)NC(=O)[C@H](CCC(=O)O)NC(=O)[C@H](CC(N)=O)NC(=O)[C@@H](C)NC1=O)C(=O)N[C@@H](CCC(=O)O)C(=O)N[C@@H](CC(=O)O)C(=O)N[C@@H](Cc1ccccc1)C(=O)N[C@@H](Cc1ccc(O)cc1)C(=O)N[C@@H](CC(=O)O)C(=O)N[C@@H](C(C)(C)C)C(=O)N[C@H](C(N)=O)CSC3 [17-69-07-N231, G-Sar10-A-(17-69-07) D-Ala1 1Nal4 D-Ala5 tBuGly11] (H-G[Sar][Sar][Sar][Sar][Sar][Sar][Sar][Sar][Sar][Sar]AC[dA]NE[1Nal][dA]CEDFYD[Tle]C-NH2; linker 13-19-26 via TBMB; C-terminus assumed) | > 20 | > 20 | – | – |
| CC[C@H](C)[C@@H]([C@@H](CC(=O)N1CCC[C@H]1[C@H](OC)[C@@H](C)C(=O)N[C@H](C)[C@@H](O)c1ccccc1)OC)N(C)C(=O)[C@@H](NC(=O)[C@H](C(C)C)N(C)C(=O)OCc1ccc(NC(=O)[C@H](CCCNC(N)=O)NC(=O)[C@@H](NC(=O)CCCC(=O)NCC(=O)N(C)CC(=O)N(C)CC(=O)N(C)CC(=O)N(C)CC(=O)N(C)CC(=O)N(C)CC(=O)N(C)CC(=O)N(C)CC(=O)N(C)CC(=O)N(C)CC(=O)N[C@@H](C)C(=O)N[C@H]2CSCc3cc4cc(c3)CSC[C@H](NC(=O)CNC(=O)[C@H](Cc3ccccc3)NC(=O)[C@H](CCC(=O)O)NC(=O)[C@H](CC(N)=O)NC(=O)[C@H](Cc3ccc(O)cc3)NC2=O)C(=O)N[C@@H](CCC(=O)O)C(=O)N[C@@H](CC(=O)O)C(=O)N[C@@H](Cc2ccccc2)C(=O)N[C@@H](Cc2ccc(O)cc2)C(=O)N[C@@H](CC(=O)O)C(=O)N[C@@H]([C@@H](C)CC)C(=O)N[C@H](C(N)=O)CSC4)C(C)C)cc1)C(C)C [BT17BDC-1] (I: G[Sar][Sar][Sar][Sar][Sar][Sar][Sar][Sar][Sar][Sar]ACYNEFGCEDFYDIC-NH2 / II: V[Cit][PABC][NMeV]V[Dil][Dolaproine]-X4; linker I:13-I:19-I:26 via TBMB; linker I:N-II:N via Glutaryl) | – | – | largely stable | – |
| CC[C@H](C)[C@@H]1NC(=O)[C@H](CC(=O)O)NC(=O)[C@H](Cc2ccc(O)cc2)NC(=O)[C@H](Cc2ccccc2)NC(=O)[C@H](CC(=O)O)NC(=O)[C@H](CCC(=O)O)NC(=O)[C@@H]2CSCc3cc(cc(c3)CSC[C@H](NC(=O)[C@H](C)NC(=O)CN(C)C(=O)CN(C)C(=O)CN(C)C(=O)CN(C)C(=O)CN(C)C(=O)CN(C)C(=O)CN(C)C(=O)CN(C)C(=O)CN(C)C(=O)CN(C)C(=O)CNC(=O)CCCSSCCC(=O)N(C)[C@@H](C)C(=O)O[C@H]3CC(=O)N(C)c4cc(cc(OC)c4Cl)C/C(C)=C/C=C/[C@@H](OC)[C@@]4(O)C[C@H](OC(=O)N4)[C@@H](C)[C@@H]4O[C@@]34C)C(=O)N[C@@H](Cc3ccc(O)cc3)C(=O)N[C@@H](CC(N)=O)C(=O)N[C@@H](CCC(=O)O)C(=O)N[C@@H](Cc3ccccc3)C(=O)NCC(=O)N2)CSC[C@@H](C(N)=O)NC1=O [BT17BDC-9] (X3-G[Sar][Sar][Sar][Sar][Sar][Sar][Sar][Sar][Sar][Sar]ACYNEFGCEDFYDIC-NH2; linker 13-19-26 via TBMB) | – | – | largely stable | reduction in tumour volume compared to vehicle control ([3]; after 9 days post injection): significant reduction in tumour volume; ED50, effective dose to achieve 50% tumour AUC reduction [4]: 2.1 ± 1.1^b mg/kg |
| CC[C@H](C)[C@@H]1NC(=O)[C@H](CC(=O)O)NC(=O)[C@H](Cc2ccc(O)cc2)NC(=O)[C@H](Cc2ccccc2)NC(=O)[C@H](CC(=O)O)NC(=O)[C@H](CCC(=O)O)NC(=O)[C@@H]2CSCc3cc(cc(c3)CSC[C@H](NC(C)=O)C(=O)N[C@@H](Cc3ccc(O)cc3)C(=O)N[C@@H](CC(N)=O)C(=O)N[C@@H](CCC(=O)O)C(=O)N[C@@H](Cc3ccccc3)C(=O)NCC(=O)N2)CSC[C@@H](C(N)=O)NC1=O [17-69-07-N004, Ac-(17-69-07) (wildtype)] | – | – | – | Clearance based on AUC 0-∞ [5]: 20.7 mL/min/kg; Volume of Distribution based on AUC 0-∞ [5]: 0.4 L/kg |
